# Values joined by “and” are separate entries in the source; they are usually repeats but may differ in a detail not shown here. Equal values may be shown once. Read-outs that look alike come from different tables or passages of the source.
# Legend:
# Cholinesterase = Cholinesterase inhibition at pre-dose in patients; type: in vivo, human; conditions: pre-dose administration, at maintenance and at termination analyses
# Excerpt: Cholinesterase inhibition at pre-dose administration both at maintenance and at termination analyses was also evident.
# [1] = Bulk and tapped density of ladostigil tartrate crystals; type: physicochemical; conditions: crystals from the alternative isopropanol process
# Excerpt: This alternative process, which can be performed without the seeding step, is better suited for use in a pilot scale and a production scale than a method that follows PCT Application Publication No. WO98/27055.
# [2] = Wet granulation experiments: compatibility with water and ethanol; type: physicochemical
# Method: The manufacturing process was changed from the dry granulation process to a wet-granulation process as a result of the flow problem with the active ingredient. Water and ethanol are the two most common agents used in wet granulation. Granulation experiments were first performed with water. […] Therefore, granulation experiments based on the CC formulation were performed with isopropanol.
# [3] = tested on: 3,4-dihydroxyphenylglycol (DHPG) in plasma; assay: Decrease of DHPG plasma concentration in patients, HPLC with electrochemical detector; type: in vivo, human
# Method: Decrease of 3,4-dihydroxyphenylglycol (“DHPG”) in plasma is indicative of monoamine oxidase inhibition, especially in the brain. DHPG plasma concentrations were measured in 6 of the aforementioned patients at baseline and at termination analysis, using HPLC equipped with an electrochemical detector.
# The decrease in DHPG concentration in the six patients was determined. The average decrease in DHPG concentration was determined to be 57% with a standard deviation of 29.
# [4] = Pharmacokinetic analysis in Alzheimer's disease patients; type: in vivo, human
# Method: Pharmacokinetic analysis was performed on Week 4 (maintenance analysis) and on Week 9 (termination analysis). At maintenance analysis (M), samples were collected pre-dose and at 0.25, 0.5, 1, 2, and 3 hours post-dose. At termination analysis (T), samples were collected pre-dose and at 0.25, 0.5, 1, 2, 3, 4, 6, and […].
# The concentration measurements are expressed in nmol/ml and the t1/2 is expressed in terms of hours.
substance,measurement,setting,value
"R(+)-6-(N-methyl, N-ethyl-carbamoyloxy)-N′-propargyl-1-aminoindan [Ladostigil Tartrate]",Cholinesterase inhibition,Cholinesterase,evident
same,bulk density,[1],0.22 to 0.29 g/mL
same,tapped density,[1],0.38 to 0.54 g/mL
same,Compatibility with ethanol,[2]; wet granulation agent,incompatible with ethanol
same,Stability in the presence of water,[2]; wet granulation with water,unstable in the presence of water
same,DHPG (T) (%),"[3]; individual patients, termination analysis Week 9 versus baseline",−63% and −86% and >−79% and −73% and −30% and −13%
same,average decrease in DHPG concentration,"[3]; six patients, termination analysis, standard deviation of 29",57%
same,t1/2,[4]; half life at termination analysis Week 9,1.08 h
same,AUC ladostigil (M),"[4]; individual patients 1-8, maintenance analysis Week 4, 100 mg twice daily, tablets of Table 9",314 ng·h/mL and 589 ng·h/mL and 1005 ng·h/mL and 927 ng·h/mL and 436 ng·h/mL and 551 ng·h/mL and 52 ng·h/mL and 500 ng·h/mL
same,AUC ladostigil (T),"[4]; individual patients 1-8, termination analysis Week 9, 100 mg twice daily, tablets of Table 9",246 ng·h/mL and 2305 ng·h/mL and 1449 ng·h/mL and 482 ng·h/mL and 398 ng·h/mL and 901 ng·h/mL and 118 ng·h/mL and 350 ng·h/mL
same,Cmax,"[4]; individual patients 1-8, termination analysis Week 9, 100 mg twice daily, read-out: Cmax ladostigil (T)",700 nM and 3800 nM and 3900 nM and 1600 nM and 1000 nM and 2500 nM and 400 nM and 1300 nM
same,Cmax,"[4]; mean after dosing, maintenance analysis Week 4, read-out: Cmax",2020 nM
same,Cmax,"[4]; mean after dosing, termination analysis Week 9, read-out: Cmax (T)",1880 nM
same,Cmin (M),"[4]; mean concentration at pre-dose (12 hours after previous dose), maintenance analysis Week 4",1.64e-08 M
same,Cmin (T),"[4]; mean concentration at pre-dose (12 hours after previous dose), termination analysis Week 9",10.9 nM
